From article PMC7708037, “Targeting OGG1 arrests cancer cell proliferation by inducing replication stress” (Nucleic Acids Research, 2020) come the findings set out here.

Assay type in all cases: cell-based, human
For assay [1], the system named is genomic 8-oxodG in A3 cells. Put plainly: 8-oxodG detection in genomic DNA by LC-MS/MS. As to conditions: 10 μM, up to five days. As to the method: (§1) 8-oxodG detection in genomic DNA through LC–MS/MS ([39]) and single-cell electrophoresis ([40]) were performed as described.
(§2) Figure 5. Effect of TH5487 on DNA lesions, DNA damage markers and DNA replication. (A) 8-oxodG accumulation in A3 cells. A3 cells were treated with 20 mM KBrO3 for 1 h or with 10 μM TH5487 for the indicated times, and the amount of genomic 8-oxodG was quantified with LC-MS/MS. Data are average ±SD of five replicates from two independent experiments. (B) Comet assay. A3 cells were treated with 10 μM TH5487 for 72 h and strand-breaks and OGG1 substrate lesions were analyzed with the OGG1-modified Comet assay. Representative images of cells are shown. (C) Violin blot of Comet tail moment. Cells were treated as in B, and the tail moment of the cells were analyzed using blinded automatic analysis (n = 200 per condition from two independent experiments). The full line indicates median, and the dotted lines quartiles. (D) Violin blot of phosphorylated γH2AX intensity. A3 cells were treated with 0.1% DMSO or 10 μM TH5487 for the indicated times and stained for phosphorylated γH2AX. […] At least 33 000 nuclei per group were quantified from three independent experiments. […] At least 300 forks were scored per condition. Statistical significance was determined using unpaired, two-sided t-tests (**P < 0.01, ***P < 0.001 and ****P < 0.0001; ns, non-significant).

Assay [2] deals with OGG1 substrate lesions in A3 cells. Put plainly: OGG1-modified Comet assay. The note with it: 10 μM, 72 h. As to the method:
as §1, §2

Another assay concerns γH2AX in A3 cells. Put plainly: Phosphorylated γH2AX (immunofluorescence / flow cytometry). As to conditions: 10 μM. As to the method: A3 cells were seeded in a 96-well plate 24 h prior to start of the experiment. Cells were then treated with 10 μM TH5487, for 24, 48 and 72 h, respectively or with 2 mM hydroxyurea for 1 h. Final DMSO concentration was 0.2%. After the treatment, cells were transferred to an imaging plate (black Falcon 96-well plate) pre-coated with 0.1% poly L-lysine (Sigma). Cells were allowed to attach for 15 minutes and were then fixed with 4% paraformaldehyde. The plate was washed with 0.05% Tween 20 in PBS, cells were permeabilized with 0.5% Triton-X100 in PBS and blocked with 2% bovine serum albumin in PBS. […] Data from three independent experiments were pooled and analyzed for statistical significance by one-way analysis of variance.
At the indicated time points, compound/dox treated cells were incubated in medium containing 10 μM 5-ethynyl-2′-deoxyuridine (EdU) (Thermo Fisher, A10044) for 20 min. […] Data was analyzed using Kaluza® Flow Analysis Software (Beckman Coulter).
Figure 5. […] A3 cells were treated with 20 mM KBrO3 for 1 h or with 10 μM TH5487 for the indicated times, and the amount of genomic 8-oxodG was quantified with LC-MS/MS. […] A3 cells were treated with 10 μM TH5487 for 72 h and strand-breaks and OGG1 substrate lesions were analyzed with the OGG1-modified Comet assay. […] At least 33 000 nuclei per group were quantified from three independent experiments. […]

`O=C(Nc1ccc(I)cc1)N1CCC(n2c(=O)[nH]c3c(Br)cccc32)CC1` [TH5487]: in assay [1], the “Genomic 8-oxodG levels” value is “did not rise above assay background levels”. Further, in assay [2], the “Increase in OGG1-induced tail length (Comet)” value is around 50%. Besides, in the assay with γH2AX in A3 cells (72 h), the “Cell cycle distribution of γH2AX positive cells” value is on record as “confined to S-phase cells”. The “Phosphorylated γH2AX” value in the assay on γH2AX in A3 cells (after 24 h) is listed as “significant increase”.
